Measured values as given in patent US10035760B2, “Inhibitors of human immunodeficiency virus replication” (priority 2013, dated 2018).
Like-named read-outs stand apart in the source and are kept apart here.

System: recombinant NL4-3 virus (Renilla luciferase) in MT-2 cells
Experiment: HIV cell culture assay (antiviral activity, luciferase readout in infected MT-2 cells)
Format: cell-based
Conditions: Renilla
Summary of the method: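 EC50 derived via median-effect equation from luciferase activity in MT-2 cells after 4–5 day infection, compound serially diluted. Virus: recombinant NL4-3 with Renilla luciferase replacing part of nef, made in 293T cells.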

[1] = NL43, read-out: Activity, antiviral activity class, recombinant NL4-3 Renilla luciferase virus in MT-2 cells
[2] = NL43, recombinant NL4-3 Renilla luciferase virus in MT-2 cells

Question: How did the EC50 [1] turn out when CCN(C(=O)[C@H](Cc1ccccc1)NC(=O)NS(=O)(=O)c1cccc(Br)c1C)c1ccc(OC)cc1 [Example 115, (S)-2-(3-((3-bromo-2-methylphenyl)sulfonyl)ureido)-N-ethyl-N-(4-methoxyphenyl)-3-phenylpropanamide] was run?
Answer: Its EC50 is < 0.1 µM.

Question: Which results are given for CCCN(C(=O)[C@H](Cc1ccccc1)NC(=O)NS(=O)(=O)c1ccccc1C)c1ccc(Cl)c(Cl)c1 [Example 183, (S)—N-(3,4-dichlorophenyl)-3-phenyl-N-propyl-2-(3-(o-tolylsulfonyl)ureido)propanamide]?
Answer: EC50 [1]: 0.1 to 1 µM; EC50 [2]: 0.31 µM

Question: How did the EC50 [1] turn out when CN(C(=O)[C@@H](Cc1ccccc1)NC(=O)NS(=O)(=O)c1ccccc1)c1ccc2c(c1)OCO2 [Example 86] was run?
Answer: The EC50 was 10 to 100 µM.

Question: With Cc1ccccc1S(=O)(=O)NC(=O)N[C@@H](Cc1cccc(S(=O)(=O)N2CCOCC2)c1)C(=O)N(C)c1ccc2c(c1)OCO2 [Example 81, (S)—N-(benzo[d][1,3]dioxol-5-yl)-N-methyl-3-(3-(morpholinosulfonyl)phenyl)-2-(3-(o-tolylsulfonyl)ureido)propanamide] as the molecule, how does the EC50 [1] read?
Answer: The EC50 was 10 to 100 µM.

Question: For CN(C(=O)[C@H](Cc1ccccc1)NC(=O)NS(=O)(=O)c1cccc(Br)c1)c1ccc2c(c1)OCO2 [Example 19, (S)—N-(benzo[d][1,3]dioxol-5-yl)-2-(3-((3-bromophenyl)sulfonyl)ureido)-N-methyl-3-phenylpropanamide], which EC50 [1] is on record?
Answer: The EC50 was 0.1 to 1 µM.

Question: For CN(C(=O)[C@H](Cc1ccccc1)NC(=O)NS(=O)(=O)c1ccc(F)cc1F)c1ccc2c(c1)OCO2 [Example 18, (S)—N-(benzo[d][1,3]dioxol-5-yl)-2-(3-((2,4-difluorophenyl)sulfonyl)ureido)-N-methyl-3-phenylpropanamide], which EC50 [1] is on record?
Answer: Its EC50 is 0.1 to 1 µM.

Question: And the EC50 [2]?
Answer: The EC50 was 0.2 µM.

Question: For Cc1ccccc1S(=O)(=O)NC(=O)N[C@@H](Cc1ccccc1)C(=O)N(c1ccccc1)C(C)C [Example CA-70, (S)—N-isopropyl-N, 3-diphenyl-2-(3-(o-tolylsulfonyl)ureido)propanamide], which EC50 [1] is on record?
Answer: The EC50 was 0.1 to 1 µM.
